Measurements taken from patent publication US10828279B2, “Prophylactic and/or therapeutic drug for diabetic nephropathy” (HuBit genomix, Inc., priority 2018, dated 2020).

What was measured:
[1] = system: Col4α1 (type IV collagen); assay: RT-quantitative PCR of Col4α1 (type IV collagen) mRNA expression in AGE-stimulated cultured mouse mesangial cells; assay type: cell-based; conditions: for Col4α1 (%): relative value, AGE 300 μg/ml+Palovarotene 0.5 μM = 100%
Experimental: (§1) The glomeruli were isolated from four-week-old wild-type C57BL/6J mice according to the method of Davies M. et al. (Kidney Int. 1994; 45(2):320-7)^36 with necessary modifications and primary culture of the glomeruli was conducted in order to establish mouse mesangial cell strains. AGEs used for cell stimulation were prepared according to the method of Doi T. et al. (Proc, Natl. Acad. Sci. U.S.A. 1992; 89:2873-2877)^37 with necessary modifications. The cultured mouse mesangial cells were grown to confluence, subjected to serum starvation using Opti-MEM (Invitrogen). Then, the cells were treated with (1) no stimulation, (2) AGE 300 μg/ml; (3) AGE 300 μg/ml+palovarotene 0.5 μM; or (4) AGE 300 μg/ml+palovarotene 1 μM. Twenty-four hours after the treatment, RNA extraction was performed by AGPC method. RT-quantitative PCR was performed with the resultant RNA, followed by evaluation of mRNA expression levels by the comparative Ct method (ΔΔ Ct method).

[2] = system: streptozocin-induced diabetic mice; assay: Histological evaluation of the kidney in STZ-induced diabetic mice on high fat diet; assay type: in vivo, mouse; conditions: DM+Palo vs DM; palovarotene 60 μg/kg i.p. twice a week, 12 weeks
Experimental: Streptozocin (Wako) was administered to 12-15 week-old ICR mice (purchased from CLEA Japan) intraperitoneally (I.P.) for five consecutive days at 50 mg/kg per injection to thereby evoke diabetes. Four weeks after the STZ administration, mouse diet was changed to a high fat diet HFD60 (Oriental Yeast) and, at the same time, intraperitoneal administration of palovarotene at 60 μg/kg twice a week was started. Twelve weeks later, the mice were dissected, followed by histological evaluation.

BMP4 = assay: RT-quantitative PCR of BMP4 mRNA expression in AGE-stimulated cultured mouse mesangial cells; assay type: cell-based; conditions: for BMP4 (%): relative value, AGE 300 μg/ml+Palovarotene 0.5 μM = 100%
Experimental: as §1

UUO mice = assay: Unilateral ureter obstruction (UUO) mouse renal tubulointerstitial fibrosis model, Sirius Red staining; assay type: in vivo; conditions: UUO+Palo vs UUO; palovarotene 1 mg/kg i.p. for 6 days, day 7 after ureter ligation
Experimental: Unilateral ureter obstruction (UUO) model is a model in which renal interstitial fibrosis is induced by feeding for seven days under ureter ligation. Briefly, the kidney of a mouse is exposed extraperitoneally by a unilateral dorsal incision. Then, ureter ligation is performed at 2 to 3 spots at intervals of 1 mm with surgical suture, which leads to decreased renal blood flow and glomerular filtration rate. Further, macrophages infiltrate into the tubulointerstitium, apoptosis of tubular epithelial cells occurs, and increase of fibroblasts and extracellular matrix protein progresses in the interstitium, which leads to interstitial fibrosis. In this model, fibrosis is evoked in a short period of time and there is no complication of uremia since no toxic substance is used. Thus, this is an interstitial fibrosis model with high reproducibility. A UUO model was established using 10-12 week-old ICR mice (purchased from CLEA Japan). […] UUO group consists of mice which were kept for 7 days under ureter ligation to thereby induce renal interstitial fibrosis. Palovarotene group consists of mice which received intraperitoneal administration of palovarotene (1 mg/kg) for 6 consecutive days starting from one day after UUO treatment. Mice in each group were dissected 7 days after UUO treatment, followed by histological evaluation of the kidney by Sirius Red staining.

TGF-β1 = assay: RT-quantitative PCR of TGF-β1 mRNA expression in AGE-stimulated cultured mouse mesangial cells; assay type: cell-based; conditions: for TGF-β1 (%): relative value, AGE 300 μg/ml+Palovarotene 0.5 μM = 100%
Experimental: as §1

[3] = AGE 300 μg/ml + compound 0.5 μM, 24 h
[4] = AGE 300 μg/ml + compound 1.0 μM, 24 h
[5] = Example 4, 0.5 and 1.0 μM, AGE 300 μg/ml, comparison with palovarotene

CC1(C)CCC(C)(C)c2cc(Cn3cccn3)c(/C=C/c3ccc(C(=O)O)cc3)cc21 [Palovarotene, 4-[(E)-2-[5,5,8,8-tetramethyl-3-(pyrazol-1-ylmethyl)-6,7-dihydronaphthalen-2-yl]ethenyl]benzoic acid]
Col4α1 (%) [1, 3]: 100%
Col4α1 (%) [1, 4]: 50%
inhibitory effect on Col4α1 (type IV collagen) expression (in words) [1, 5]: dose-dependent inhibitory effect
production of Col4α1 (type IV collagen) increased by AGE stimulation ([1]; palovarotene 0.5 μM, AGE 300 μg/ml, 24 h, FIG. 2C): completely inhibited
Smad1 activation (pSmad1) [2]: inhibition of Smd1 activation
WT1 expressed in the podocyte nuclei (WT1) [2]: inhibition of reduction of WT1
expansion of the glomerular mesangial area (PAS staining) [2]: inhibition of expansion of the glomerular mesangial area
nephrin-expressing area in glomerular podocytes (Nephrin) [2]: inhibition of reduction of nephrin-expressing area
phosphorylation of Smad2/3 [2]: strongly inhibited
type IV collagen expression (Col4) [2]: reduction of type IV collagen expression
BMP4 (%) (BMP4; [3]): 100%
BMP4 (%) (BMP4; [4]): 60%
BMP4 expression increased by AGE stimulation (BMP4; AGE 300 μg/ml + palovarotene 0.5 or 1 μM, 24 h, FIG. 2B): clearly inhibited by palovarotene in a dose dependent manner
inhibitory effect on BMP4 expression (in words) (BMP4; [5]): dose-dependent inhibitory effect
inhibition of BMP4 expression increased by AGE stimulation (BMP4; palovarotene 1 μM, AGE 300 μg/ml, 24 h, FIG. 2B): almost complete
degree of staining of the tubulointerstitium with Sirius Red (UUO mice): clearly lower than that in the kidney tissue of UUO mice
tubulointerstitial fibrosis (UUO mice): markedly inhibits
TGF-β1 (%) (TGF-β1; [3]): 100%
TGF-β1 (%) (TGF-β1; [4]): 70%
TGF-β expression increased by AGE stimulation (TGF-β1; AGE 300 μg/ml + palovarotene 0.5 or 1 μM, 24 h, FIG. 2A): strongly inhibited
inhibitory effect on TGF-01 expression (in words) (TGF-β1; [5]): dose-dependent inhibitory effect
